From patent US9120893B1, “Alkoxy polycarbonates, bisphenol monomers and methods of making and using the same” (SABIC Global Technologies B.V., priority 2014, dated 2015)

Assays:
[1] = biological target: T1, recombinant human estradiol receptors (rhER) alpha (α) (Homo sapiens, UniProt P03372); experiment: in vitro competitive binding assay, displacement of radiolabeled 17b-estradiol, rhER alpha; details: result in words; highest concentration 2.5×E-4 M
T1 sequence (P03372 1-595): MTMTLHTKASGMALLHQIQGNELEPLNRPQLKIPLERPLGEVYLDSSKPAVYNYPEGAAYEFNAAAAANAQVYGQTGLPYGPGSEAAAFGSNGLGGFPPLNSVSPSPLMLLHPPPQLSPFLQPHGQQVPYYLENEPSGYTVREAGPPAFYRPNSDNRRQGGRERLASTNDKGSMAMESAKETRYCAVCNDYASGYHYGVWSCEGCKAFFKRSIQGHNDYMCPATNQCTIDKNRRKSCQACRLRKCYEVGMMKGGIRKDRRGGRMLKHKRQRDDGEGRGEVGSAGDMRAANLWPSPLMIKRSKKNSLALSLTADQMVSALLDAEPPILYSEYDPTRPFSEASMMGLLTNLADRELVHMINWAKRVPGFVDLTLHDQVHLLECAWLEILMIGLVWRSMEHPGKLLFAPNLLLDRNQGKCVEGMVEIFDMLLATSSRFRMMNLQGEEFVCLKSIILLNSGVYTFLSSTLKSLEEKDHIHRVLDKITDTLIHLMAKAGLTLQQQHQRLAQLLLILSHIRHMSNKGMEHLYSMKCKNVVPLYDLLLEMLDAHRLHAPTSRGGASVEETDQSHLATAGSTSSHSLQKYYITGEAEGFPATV

[2] = biological target: recombinant human estradiol receptors (rhER) beta 1 (β1) (Homo sapiens, UniProt Q92731); experiment: in vitro competitive binding assay, displacement of radiolabeled 17b-estradiol, rhER beta 1; details: result in words; highest concentration 2.5×E-4 M
recombinant human estradiol receptors (rhER) beta 1 (β1), sequence (Q92731 whole entry): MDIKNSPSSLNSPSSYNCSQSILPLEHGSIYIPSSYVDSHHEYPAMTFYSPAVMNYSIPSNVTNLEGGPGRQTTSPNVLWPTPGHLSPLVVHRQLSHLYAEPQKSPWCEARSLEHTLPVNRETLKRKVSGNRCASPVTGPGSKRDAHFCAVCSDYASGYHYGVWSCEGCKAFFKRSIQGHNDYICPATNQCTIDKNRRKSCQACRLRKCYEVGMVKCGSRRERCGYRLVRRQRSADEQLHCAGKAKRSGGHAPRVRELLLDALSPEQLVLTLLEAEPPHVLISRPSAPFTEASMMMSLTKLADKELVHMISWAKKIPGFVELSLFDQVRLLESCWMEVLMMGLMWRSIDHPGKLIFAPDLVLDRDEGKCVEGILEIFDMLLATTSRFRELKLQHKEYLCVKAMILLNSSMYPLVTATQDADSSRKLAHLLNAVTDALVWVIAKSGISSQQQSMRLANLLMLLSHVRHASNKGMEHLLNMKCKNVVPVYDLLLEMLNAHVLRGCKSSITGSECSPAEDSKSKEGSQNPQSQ

COc1cc(C(C)(C)c2ccc(O)c(OC)c2)ccc1O [compound 1, 4,4′ (2,2′-isoPropylidene)-Bis(ortho Methoxy)Phenol (PBMP)]
estradiol binding activity, alpha receptor binding [1]: no estradiol binding activity | estradiol binding activity, beta receptor binding [2]: no estradiol binding activity
